Assay results published in patent US10231985B2, “Compounds and compositions comprising such compounds for the prevention or treatment of dyslipidaemias” (CENTRE NATIONAL DE LA RECHERCHE SCIENTIFIQUE, priority 2013, dated 2019).

Columns and labels:
[1] = tested on: phospholipids of the cellular membranes (hem1Δ strain); experiment: Fatty acid content of cellular phospholipids (lipid extraction, ESI-MS); type: cell-based, Saccharomyces cerevisiae
Method: The hem1Δ strain is grown in liquid medium (YPG^A, YPG^+, or YPG^++200 μM compound to be tested) under aerobic conditions, with shaking and at 28° C. for 7 hours, from an initial cell concentration of 2×10^6 cells/ml. At the conclusion of the culture, 10^8 cells are collected in order to carry out a total lipid extraction. After having suspended the cells in 1 ml of distilled water at 4° C., 500 μl of glass beads (Ø 0.6 mm) are added and the whole then undergoes 3 sequences of 20 seconds at 5000 rpm in a shaker (the tubes are kept on ice between each of the 3 sequences). The cell lysate then obtained, supplemented with bead-washing solution (1 ml), is then transferred to a 40 ml glass tube (Corex™) before carrying out the lipid extraction using a 2:1 (v/v) methanol:chloroform ratio. First, 6 ml of methanol is added and the whole is vortexed for 30 seconds and then incubated for 15 minutes at 65° C. Once the mixture cools to room temperature, 3 ml of chloroform is added and then the whole is vortexed again for 30 seconds before allowing the extraction to proceed for 16 hours. Later, the sample is centrifuged for 12 minutes at 10000 g before transferring the supernatant to a new Corex™ tube. After adding 2 ml of chloroform and then 4 ml of distilled water, the whole is vortexed for 30 seconds and then centrifuged for 8 minutes at 3000 g. After removing the resulting upper phase, the lower organic phase is collected in a glass hemolysis tube. Finally, the solvent is evaporated under a stream of nitrogen at 80° C. in order to obtain the total cellular lipid samples.
The total cellular lipid samples are resuspended in 1 ml of dichloromethane while being vortexed for 30 seconds. The whole is deposited on a silica column (BOND ELUT-SI, 100 mg 1 ml) preconditioned successively with 3 ml of methanol and then 2 ml of dichloromethane. The fraction retained by the column is then washed successively with 2 ml of dichloromethane and then 3 ml of acetone. Finally, 2 ml of a 50:45:5 (v/v/v) chloroform/methanol/water mixture is deposited on the column and the phospholipids thus eluted are collected in a glass hemolysis tube. The solvent is evaporated under nitrogen at 80° C. in order to obtain the cellular phospholipid samples.
Once resuspended in 100 μl of the mixture Mix^− (2:1:1 (v/v/v) isopropanol/acetonitrile/water+1% (v/v) triethylamine) or the mixture Mix^+ (2:1:1 (v/v/v) isopropanol/acetonitrile/water+1% (v/v) formic acid), the samples are analyzed by electrospray ionization mass spectrometry (ESI-MS) in negative or positive mode, respectively, and the results obtained are used to analyze the fatty acid content of the various phospholipid species.

lipase = experiment: Resistance to hydrolytic activity of lipases (thin-layer chromatography); type: in vitro ADME; details: 10 U of lipase, 30 minutes, 37° C.
Method: OAG (15 μmol) and N,N-diethanololeamide were subjected (+) or not (−) to exposure to 10 U of lipase for 30 minutes at 37° C. Following the incubation, the lipid species were extracted from the samples before being separated by thin-layer chromatography.

[2] = tested on: BRIN-BD11 pancreatic β-cells; experiment: Cell viability of palmitic acid-lipointoxicated pancreatic β-cells (propidium iodide, flow cytometry); type: cell-based, rat; details: BRIN-BD11, 200 μM palmitic acid
Method: Pancreatic β-cells, BRIN-BD11, were grown under control conditions or in the presence of an exogenous source of saturated fatty acid (200 μM palmitic acid), as described by Dhayal & Morgan (2011), in order to generate lipointoxication conditions, with or without the addition of OAG. A) The proportion of dead cells was estimated in the absence (control) or presence of palmitic acid, for increasing concentrations of OAG. B) eIF2α phosphorylation levels were also analyzed under the various conditions by Western blot, in the presence or absence (Ø) of OAG, and were normalized to total eIF2α.
The lipid species are prepared in ethanol before being complexed with bovine serum albumin (BSA, first depleted of fatty acids) by incubation for 1 hour at 37° C. The palmitic acid stock solution is obtained by adding one volume of ethanol before the whole is heated to 70° C. for homogenization. OAG and LPA solutions are prepared in 100% ethanol at room temperature. For the incubations of mammalian cells, the final BSA and ethanol concentrations in the culture medium are kept at 1% and 0.5% (w/v), respectively.
The rat pancreatic β-cell line (BRIN-BD11) is grown in complete RPMI-1640 medium, containing 11 mM glucose and supplemented with 10% (v/v) fetal calf serum (FCS), 2 mM L-glutamine, 100 U/ml penicillin and 100 μg/ml streptomycin. For each experiment, the cells are first seeded at a density of 0.5×10^5 cells/ml in 6-well plates for 24 hours. Thereafter, the complete medium is replaced by an equivalent lacking FCS but containing the lipid reagents of interest, at the desired concentrations, complexed with BSA. Under the control conditions, identical amounts of BSA and ethanol are then used. […] After incubation on ice for 10 minutes, the samples thus obtained are analyzed by flow cytometry. A Beckman Coulter EPICS XL MCL is used for the quantification, an FL3 channel is used to detect the emissions of the PI intercalated in the DNA, and the analysis is carried out using the EXPO32 ADC software (Applied Cytometry Systems, V 1.1 build 207).

[3] = tested on: QM strain (cells not synthesizing triglycerides); experiment: Toxicity test on QM strain (growth inhibition halos); type: cell-based, Saccharomyces cerevisiae; details: 5 μl drops on agar, after three days
Method: Drops (5 μl) of OAG, LPA or oleic acid were deposited, from stock solutions at the indicated concentrations, on the surface of an agar medium over which the QM strain had been spread beforehand. […] These halos are, however, not observed in the presence of LPA or of OAG.
In parallel, wild-type (WT) and quadruple mutant (QM) strains are grown, under aerobic conditions, with shaking and at 28° C., in liquid YPG medium before seeding 3500 cells per cm^2 of YPG+2% agar (w/v). Following this transfer to solid medium, 1 μl drops of 1, 10 and 100 mM solutions of the various compounds in DMSO or EtOH are deposited on the agar surface. Separately, DMSO and EtOH are also deposited in order to evaluate the intrinsic toxicity of these two solvents. After 3 days of culture at 28° C., the toxicity of the compounds tested is evaluated by comparing the growth inhibition halo diameters obtained for the depositions of pure solvent with those of the depositions of the various concentrations of the compounds tested. Unlike the WT strain, the QM strain is incapable of buffering excess exogenous oleic acid in the form of neutral lipids (triglycerides (TG) or esterified sterols (ES)) in lipid droplets.

[4] = tested on: hem1Δ yeasts grown under SFA accumulation conditions; experiment: Restoration of growth of lipointoxicated hem1Δ yeast; type: cell-based, Saccharomyces cerevisiae; details: after 3 days, increasing concentrations
Method: The strain bearing the hem1Δ mutation is grown, under aerobic conditions, with shaking and at 28° C., in liquid YPG^A medium (YPG (1% yeast extract (w/v), 1% peptone (w/v) and 2% glucose (w/v)) supplemented with 80 μg/ml 6-aminolevulinic acid (ALA)). Lipointoxication by saturated fatty acids (SFA) is caused by depletion of unsaturated fatty acids (UFA), the synthesis of which is dependent on the presence of heme (the prosthetic group of the Ole1p enzyme in particular), by transfer to YPG^+ medium (YPG supplemented with 80 μg/ml ergosterol to compensate for the sterol depletion obtained under this condition). Lipointoxication can be induced on solid YPG^+ medium+2% agar (w/v) by transferring 3500 cells (hem1Δ from preculture in YPG^A) per cm^2 or, alternatively, in liquid medium by inoculating 2×10^6 cells/ml YPG^+. Classically, the effects of SFA lipointoxication are analyzed 7 hours after the transfer to YPG^+ medium. The ability of a compound to counter the deleterious effects of SFA lipointoxication, in turn, is evaluated successively to the addition of this compound on (or in) the YPG^+ transfer medium, after seeding with the cells.
Following the induction of SFA lipointoxication (for hem1Δ grown on solid medium) 5 μl drops of solutions of the various compounds at 10 mM in dimethylsulfoxide (DMSO) or ethanol (EtOH) are deposited on the surface of the agar. The ability of a compound to counter the arrest of lipid-induced cell growth is estimated by the appearance of a halo of hem1Δ colonies at the site of the deposition of said compound after 3 days of culture at 28° C. (see Deguil et al., 2011).
Jointly with the induction of SFA lipointoxication (for hem1Δ in liquid medium), the various compounds are added to the cultures at an initial concentration of 200 μM. Proliferation is monitored by spectrometric measurement of cell density, at regular time intervals (every hour over the duration of the observation). At a wavelength of 600 nm, one optical density unit (OD600 nm) corresponds to 2×10^7 cells/ml.

Compound	Effect on fatty acid composition of membrane phospholipids [1]	Hydrolysis by lipases (lipase)	Apoptosis / proportion of dead cells of pancreatic β-cells [2]	Growth inhibition halos on QM strain [3]	Restoration of the growth of hem1Δ yeasts [4]
CCCCCCCC/C=C\CCCCCCCC(=O)N(CCO)CCO [N,N-diethanololeamide]	without restoring a normal diunsaturated phospholipid composition	resists hydrolysis by lipases	prevent apoptosis	–	–
CCCCCCCC/C=C\CCCCCCCC(=O)O [oleic acid, reference compound]	–	–	–	growth inhibition halos (absence of colonies) can be observed	restore the growth
CCCCCCCC/C=C\CCCCCCCC(=O)OCC(CO)(CO)CO [3-hydroxy-2,2-bis(hydroxymethyl)propyl oleate]	without restoring a normal diunsaturated phospholipid composition	–	prevent apoptosis	–	–
